Experimental data taken from ChEMBL document CHEMBL3991601, “The target landscape of clinical kinase drugs” (Science, 2017).
Activity calls are given as the source filed them. Unless noted, the calls are words filed in the database; no cut-off is given here.

Experiments:
[1] = molecular target: Putative nucleoside diphosphate kinase (Homo sapiens, UniProt O60361)
[2] = molecular target: T1, Uncharacterized protein FLJ45252 (Homo sapiens, UniProt Q6ZSR9)
T1 sequence (Q6ZSR9 whole entry): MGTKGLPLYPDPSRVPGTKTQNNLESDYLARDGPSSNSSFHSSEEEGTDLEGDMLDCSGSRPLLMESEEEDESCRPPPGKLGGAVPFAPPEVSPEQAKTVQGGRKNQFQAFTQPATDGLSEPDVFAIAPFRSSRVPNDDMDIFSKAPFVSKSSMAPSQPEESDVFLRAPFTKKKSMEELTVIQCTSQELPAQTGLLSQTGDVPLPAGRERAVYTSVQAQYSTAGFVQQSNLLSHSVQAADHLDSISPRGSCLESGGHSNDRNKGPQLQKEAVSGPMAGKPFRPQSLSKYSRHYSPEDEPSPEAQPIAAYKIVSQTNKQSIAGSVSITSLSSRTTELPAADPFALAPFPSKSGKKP

[3] = molecular target: 5'-AMP-activated protein kinase subunit gamma-2 (Homo sapiens, UniProt Q9UGJ0)
Chain of 5'-AMP-activated protein kinase subunit gamma-2 (Q9UGJ0 whole entry): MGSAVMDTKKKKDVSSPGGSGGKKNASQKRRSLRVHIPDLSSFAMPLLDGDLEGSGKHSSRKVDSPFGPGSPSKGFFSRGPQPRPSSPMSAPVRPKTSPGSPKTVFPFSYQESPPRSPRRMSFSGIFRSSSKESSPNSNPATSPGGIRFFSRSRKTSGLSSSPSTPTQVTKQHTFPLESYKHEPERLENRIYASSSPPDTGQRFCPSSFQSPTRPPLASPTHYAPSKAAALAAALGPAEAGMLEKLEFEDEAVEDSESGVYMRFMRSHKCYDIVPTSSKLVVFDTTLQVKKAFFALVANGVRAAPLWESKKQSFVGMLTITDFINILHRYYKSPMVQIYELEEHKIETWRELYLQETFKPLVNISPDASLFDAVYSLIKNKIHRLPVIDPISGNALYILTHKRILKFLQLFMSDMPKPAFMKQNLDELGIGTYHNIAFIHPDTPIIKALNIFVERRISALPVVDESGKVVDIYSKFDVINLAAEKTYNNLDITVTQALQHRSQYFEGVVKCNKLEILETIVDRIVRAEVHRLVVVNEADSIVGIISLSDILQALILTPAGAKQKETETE

Chain of Putative nucleoside diphosphate kinase (O60361 whole entry): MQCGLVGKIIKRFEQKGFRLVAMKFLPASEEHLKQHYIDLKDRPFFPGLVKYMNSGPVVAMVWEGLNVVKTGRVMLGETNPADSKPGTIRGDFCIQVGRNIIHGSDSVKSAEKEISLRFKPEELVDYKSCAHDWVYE

Row | Kd [1] | SMILES | Kd [2] | Kd [3]
1 | > 30 µM (inactive) | COc1cc(Nc2ncc3c(n2)-c2ccc(Cl)cc2C(c2c(F)cccc2OC)=NC3)ccc1C(=O)O [ALISERTIB] |  | 
2 |  | COc1c(OCCCN2CCOCC2)ccc2c1N=C(NC(=O)c1cnc(N)nc1)N1CCN=C21 [COPANLISIB] | > 30 µM (inactive) | > 30 µM (inactive)
3 |  | O=C(Nc1nc2cccc(-c3ccc(CN4CCS(=O)(=O)CC4)cc3)n2n1)C1CC1 [FILGOTINIB] | 4.38 µM (active) | > 30 µM (inactive)
4 | > 30 µM (inactive) | COc1ncc(-c2ccc3nccc(-c4ccnnc4)c3c2)cc1NS(=O)(=O)c1ccc(F)cc1F [OMIPALISIB] |  | 
